In ChEMBL document CHEMBL1134316, “Identification of dipeptidyl nitriles as potent and selective inhibitors of cathepsin B through structure-based drug design” (J Med Chem, 2001):

Each molecule was assayed against Procathepsin L (Homo sapiens, UniProt P07711) (assay: Inhibitory activity against recombinant human cathepsin L (cat L) expressed in baculovirus).
Sequence of Procathepsin L (P07711 whole entry): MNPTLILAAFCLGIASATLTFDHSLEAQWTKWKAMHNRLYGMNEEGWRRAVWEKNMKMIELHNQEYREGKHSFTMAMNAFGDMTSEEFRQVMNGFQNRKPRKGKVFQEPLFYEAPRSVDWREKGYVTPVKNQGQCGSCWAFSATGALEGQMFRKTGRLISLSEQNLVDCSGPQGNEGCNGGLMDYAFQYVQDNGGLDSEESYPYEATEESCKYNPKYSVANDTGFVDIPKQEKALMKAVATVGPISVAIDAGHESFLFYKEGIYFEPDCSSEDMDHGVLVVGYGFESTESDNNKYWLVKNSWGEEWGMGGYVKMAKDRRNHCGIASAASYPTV

Structure (SMILES) | IC50
N#CCNC(=O)[C@H](Cc1ccccc1)NC(=O)Cc1ccccc1 | 170 nM
N#CCNC(=O)[C@H](Cc1ccccc1)NC(=O)C(c1ccccc1)c1ccccc1 | 31 nM

What follows are molecules tested against Cathepsin B (Homo sapiens, UniProt P07858) (assay: Inhibitory activity against recombinant human cathepsin B (cat B) expressed in baculovirus.).

Structure (SMILES) | IC50
N#CCNC(=O)[C@H](Cc1cccc(C(=N)N)c1)NC(=O)C(c1ccccc1)c1ccccc1 | > 1000 nM
Cc1cccc(C[C@H](NC(=O)c2ccc(Cl)cc2F)C(=O)N[C@H](C#N)COCc2cccc(C(=O)O)c2)c1 | 2 nM
Cc1cccc(C[C@H](NC(=O)c2ccccc2)C(=O)NCC#N)c1 | 1900 nM
Cc1cc(CN)cc(C[C@H](NC(=O)C(c2ccccc2)c2ccccc2)C(=O)NCC#N)c1 | 358 nM
Cc1cc(C)cc(C[C@H](NC(=O)C(c2ccccc2)c2ccccc2)C(=O)NCC#N)c1 | 11.9 nM
N#CCNC(=O)[C@H](Cc1cccc(I)c1)NC(=O)C(c1ccccc1)c1ccccc1 | 121 nM
Cc1cccc(C[C@H](NC(=O)C(c2ccccc2)c2ccccc2)C(=O)N[C@H](C#N)CCOc2cccc(C(=O)O)c2)c1 | 138 nM
Cc1cccc(C[C@H](NC(=O)c2ccc(Cl)cc2F)C(=O)N[C@H](C#N)COCc2ccccc2)c1 | 16.9 nM
Cc1cccc(C[C@H](NC(=O)c2ccc(F)cc2F)C(=O)N[C@H](C#N)COCc2ccccc2)c1 | 42 nM
N#CCNC(=O)[C@H](Cc1ccccc1)NC(=O)Cc1ccccc1 | 34000 nM
Cc1cccc(C[C@H](NC(=O)c2ccc(F)cc2F)C(=O)NCC#N)c1 | 591 nM
CCCCC(=O)N[C@@H](Cc1cccc(C)c1)C(=O)N[C@H](C#N)COCc1cccc(C(=O)O)c1 | 35.7 nM
Cc1cccc(C[C@H](NC(=O)c2ccc(Cl)cc2F)C(=O)NCC#N)c1 | 72 nM
Cc1cccc(C[C@H](NC(=O)C(c2ccccc2)c2ccccc2)C(=O)N[C@H](C#N)COCc2ccccc2)c1 | 10.2 nM
Cc1cccc(C[C@H](NC(=O)C(c2ccccc2)c2ccccc2)C(=O)N[C@H](C#N)COCc2ccc(C(=O)O)cc2)c1 | 30.7 nM
Cc1cccc(C[C@H](NC(=O)c2ccc(Cl)c(Cl)c2)C(=O)NCC#N)c1 | 31.3 nM
Cc1cccc(C[C@H](NC(=O)c2ccccc2)C(=O)N[C@H](C#N)COCc2cccc(C(=O)O)c2)c1 | 9.4 nM
N#CCNC(=O)[C@H](Cc1ccc(I)cc1)NC(=O)C(c1ccccc1)c1ccccc1 | > 1000 nM
N#CCNC(=O)[C@H](Cc1ccccc1)NC(=O)C(c1ccccc1)c1ccccc1 | 496 nM
Cc1cccc(C[C@H](NC(=O)c2ccc(F)cc2F)C(=O)N[C@H](C#N)CCCc2cccc(C(=O)O)c2)c1 | 110 nM
COC(=O)c1cccc(COC[C@@H](C#N)NC(=O)[C@H](Cc2cccc(C)c2)NC(=O)C(c2ccccc2)c2ccccc2)c1 | 47 nM
Cc1cccc(C[C@H](NC(=O)C(c2ccccc2)c2ccccc2)C(=O)N[C@H](C#N)COCc2cccc(CO)c2)c1 | 29 nM
Cc1cccc(C[C@H](NC(=O)C(c2ccccc2)c2ccccc2)C(=O)N[C@H](C#N)CCCc2cccc(C(=O)O)c2)c1 | 18 nM
N#CCNC(=O)[C@H](Cc1cccc(Cl)c1)NC(=O)C(c1ccccc1)c1ccccc1 | 130 nM
Cc1cccc(C[C@H](NC(=O)C(c2ccccc2)c2ccccc2)C(=O)N[C@H](C#N)CC#Cc2cccc(C(=O)O)c2)c1 | 5.6 nM
N#CCNC(=O)[C@H](Cc1ccccc1)NC(=O)OCc1ccccc1 | 62000 nM
Cc1cncc(C[C@H](NC(=O)C(c2ccccc2)c2ccccc2)C(=O)NCC#N)c1 | 652 nM
CCc1cccc(C[C@H](NC(=O)C(c2ccccc2)c2ccccc2)C(=O)NCC#N)c1 | 136 nM
Cc1cccc(C[C@H](NC(=O)c2ccc(Cl)cc2)C(=O)NCC#N)c1 | 308 nM
CCCCC(=O)N[C@@H](Cc1cccc(C)c1)C(=O)NCC#N | 3000 nM

What follows are molecules tested against Cathepsin S (Homo sapiens, UniProt P25774) (assay: Inhibitory activity against recombinant human cathepsin S (cat S) expressed in baculovirus).
Sequence of Cathepsin S (P25774 whole entry): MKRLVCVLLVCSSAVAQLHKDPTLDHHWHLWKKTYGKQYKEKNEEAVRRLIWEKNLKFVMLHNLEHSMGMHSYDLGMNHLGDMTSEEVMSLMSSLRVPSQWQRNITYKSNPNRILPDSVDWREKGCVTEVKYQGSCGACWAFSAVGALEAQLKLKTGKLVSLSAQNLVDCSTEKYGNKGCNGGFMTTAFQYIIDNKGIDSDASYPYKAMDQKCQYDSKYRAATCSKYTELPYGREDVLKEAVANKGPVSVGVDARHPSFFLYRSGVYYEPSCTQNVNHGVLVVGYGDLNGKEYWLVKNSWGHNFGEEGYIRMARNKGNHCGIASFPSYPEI

Structure (SMILES) | IC50
N#CCNC(=O)[C@H](Cc1ccccc1)NC(=O)Cc1ccccc1 | 226 nM
N#CCNC(=O)[C@H](Cc1ccccc1)NC(=O)C(c1ccccc1)c1ccccc1 | 48 nM
